Residues, ends and D or L forms follow the SMILES beside them. *: point of attachment. Boc = CC(C)(C)OC(=O)*

The target in one assay is T1, Peregrin (Homo sapiens) (UniProt P55201).
T1 sequence (whole entry): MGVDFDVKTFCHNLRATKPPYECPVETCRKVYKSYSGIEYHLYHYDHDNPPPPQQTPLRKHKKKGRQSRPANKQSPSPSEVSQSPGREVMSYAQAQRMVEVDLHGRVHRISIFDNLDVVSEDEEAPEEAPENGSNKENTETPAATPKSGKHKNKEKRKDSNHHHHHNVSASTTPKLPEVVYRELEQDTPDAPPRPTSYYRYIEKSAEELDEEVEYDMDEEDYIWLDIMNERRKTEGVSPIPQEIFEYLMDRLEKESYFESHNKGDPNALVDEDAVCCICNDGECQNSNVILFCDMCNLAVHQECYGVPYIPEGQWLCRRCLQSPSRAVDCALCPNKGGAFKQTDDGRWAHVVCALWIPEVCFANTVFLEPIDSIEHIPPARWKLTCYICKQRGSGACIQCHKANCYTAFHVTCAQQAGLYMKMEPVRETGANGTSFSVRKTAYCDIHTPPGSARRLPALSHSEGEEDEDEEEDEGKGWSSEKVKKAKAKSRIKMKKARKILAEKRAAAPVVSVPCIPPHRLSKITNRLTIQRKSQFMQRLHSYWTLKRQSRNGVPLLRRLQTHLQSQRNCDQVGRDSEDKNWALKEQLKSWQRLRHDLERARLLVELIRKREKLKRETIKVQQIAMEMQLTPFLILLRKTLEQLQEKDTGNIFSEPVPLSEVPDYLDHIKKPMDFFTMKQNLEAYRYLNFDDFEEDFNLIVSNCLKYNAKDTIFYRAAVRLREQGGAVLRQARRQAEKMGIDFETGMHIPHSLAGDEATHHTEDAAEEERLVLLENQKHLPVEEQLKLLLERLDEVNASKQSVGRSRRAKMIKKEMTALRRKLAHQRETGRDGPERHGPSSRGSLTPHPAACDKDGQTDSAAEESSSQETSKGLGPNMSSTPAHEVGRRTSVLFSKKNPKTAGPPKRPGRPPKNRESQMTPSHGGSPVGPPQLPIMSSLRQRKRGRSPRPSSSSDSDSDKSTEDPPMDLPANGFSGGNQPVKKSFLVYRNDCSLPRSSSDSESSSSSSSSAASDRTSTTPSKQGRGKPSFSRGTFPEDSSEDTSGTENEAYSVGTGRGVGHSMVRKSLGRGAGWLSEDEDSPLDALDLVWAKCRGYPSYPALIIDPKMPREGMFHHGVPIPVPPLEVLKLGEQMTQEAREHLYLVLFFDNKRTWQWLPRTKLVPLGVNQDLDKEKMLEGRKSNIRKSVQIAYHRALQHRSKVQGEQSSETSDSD
Particulars: Compound concentration 20.0 uM.

The target of assay [1] is Fibroblast growth factor receptor 2 (Homo sapiens) (UniProt P21802). The settings on record: Compound concentration 20.0 uM.
Fibroblast growth factor receptor 2 (Homo sapiens), sequence (P21802 22-821 limits assumed): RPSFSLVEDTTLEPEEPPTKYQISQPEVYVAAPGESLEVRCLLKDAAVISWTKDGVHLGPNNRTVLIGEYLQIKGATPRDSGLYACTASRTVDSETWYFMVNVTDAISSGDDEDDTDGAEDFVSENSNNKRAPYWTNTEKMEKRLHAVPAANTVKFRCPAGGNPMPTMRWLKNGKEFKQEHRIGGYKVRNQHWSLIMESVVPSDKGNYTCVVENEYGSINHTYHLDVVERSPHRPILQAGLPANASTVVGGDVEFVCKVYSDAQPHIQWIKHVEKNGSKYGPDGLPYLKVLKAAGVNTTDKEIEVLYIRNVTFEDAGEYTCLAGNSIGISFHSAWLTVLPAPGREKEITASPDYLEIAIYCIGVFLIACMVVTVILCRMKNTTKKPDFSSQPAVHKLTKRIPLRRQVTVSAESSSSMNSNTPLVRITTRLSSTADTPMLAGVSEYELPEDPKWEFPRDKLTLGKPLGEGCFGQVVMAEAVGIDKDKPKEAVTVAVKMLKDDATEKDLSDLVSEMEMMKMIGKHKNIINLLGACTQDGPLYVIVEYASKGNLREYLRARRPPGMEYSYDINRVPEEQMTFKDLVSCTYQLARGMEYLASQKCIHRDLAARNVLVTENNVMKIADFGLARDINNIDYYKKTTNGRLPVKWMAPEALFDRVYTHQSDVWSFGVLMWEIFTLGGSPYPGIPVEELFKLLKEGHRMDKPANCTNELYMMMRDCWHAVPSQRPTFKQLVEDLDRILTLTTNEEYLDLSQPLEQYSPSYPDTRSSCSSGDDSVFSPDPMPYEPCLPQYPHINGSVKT
Description: Thermal Shift Assay. Domain: start/stop: T457-E768

By ΔTm is commonly meant the change in melting temperature against a reference sample. With `CC(C)(C)OC(=O)N1CCN(C(=O)n2cc(-c3ccc(OC(F)(F)F)cc3)nn2)C(Cc2ccccc2)C1` (centres undefined), the values for the ΔTm (on Peregrin (Homo sapiens); in assay [1]) were 0.21 °C and -0.77 °C, respectively.
In the same order, the values of `CCn1ncc2c(NC3CCOCC3)c(-c3nnc(Cc4sc(C)nc4C)o3)cnc21` are 0.65 °C and 0.47 °C.
Consider `CC(C)NCC(O)COC(Cn1c2ccccc2c2ccccc21)Cn1c2ccccc2c2ccccc21` (centres undefined), for which the ΔTm is -1.15 °C at Peregrin (Homo sapiens) and 0.48 °C in assay [1].
For `Cc1cc(/N=N/c2ccc(S(=O)(=O)NC3CCCC3)cc2)c(N)cc1O` the same measures were 7.73 °C and 2.06 °C.
For `CCCN1CCN(c2ccc(C(=O)NC3(C(=O)NCC#N)CCCCC3)cc2)CC1` the same measures were -1.09 °C and 0.76 °C.
For `CCN1C(C)(C)CC(Oc2ccc(C(=O)Nc3ccc(NC(=O)Nc4cc(C(C)(C)C)on4)cc3)nc2)CC1(C)C` the same measures were -1.03 °C and -2 °C.
For the compound `CC(C)c1ccc(-c2cc(=O)c3ccccc3o2)cc1`, the thermal shift (ΔTm) at Peregrin (Homo sapiens) was -0.32 °C; in assay [1] it was -0.13 °C.
For `CCC(CC)N(CCN(C)C(=O)CCC(=O)O)Cc1cccc(C(=O)Nc2sc3c(c2C(=O)c2cnn(-c4ccc(Cl)c(C(F)(F)F)c4)c2)CCC(C)(C)C3)c1` the same measures were -1.97 °C and -2.12 °C.
For `CCCCCCCCCCCCC/C=C/[C@@H](O)[C@H](CO)NC(=O)CBr` the same measures were -2.74 °C and -18.9 °C.
In the same order, the values of `C[C@@H]1CN(Cc2ncccn2)C[C@H]1c1nc2c(cnn2C2CCOCC2)c(=O)[nH]1` are 0.83 °C and 0.17 °C.
With `CC1(C)Cn2nc(-c3ccc(F)cn3)c(-c3ccnc4[nH]ncc34)c2CO1`, the ΔTm at Peregrin (Homo sapiens) (tested as the 2H-labelled form) was -1.29 °C; in assay [1] (tested as the 2H-labelled form), 0.38 °C.
In the case of `Nc1ccccc1NC(=O)c1ccc(CNc2nccc(-c3cccnc3)n2)cc1`, the ΔTm on Peregrin (Homo sapiens) is -0.72 °C; in assay [1], 1.02 °C.
For `CCNC(=O)c1noc(-c2cc(C(C)C)c(O)cc2O)c1-c1ccc(CN2CCOCC2)cc1` the same measures were -1.1 °C and 0.62 °C.
For `NCCOCCOCCNC(=O)Cc1ccc(Nc2nc(NCc3ccc(F)cc3)nc(NCC3CCCCC3)n2)cc1` the same measures were 2.13 °C and 0.03 °C.
For `CC(C)(C)OC(=O)NCCCCCN(CCc1ccccc1)C(=O)n1cc(-c2ccc(OC(F)(F)F)cc2)nn1` the same measures were 1.14 °C and -1.05 °C.
For the compound `COc1cc(O)c2c(c1)/C=C\C[C@H](O)[C@H](O)C(=O)/C=C\C[C@H](C)OC2=O`, the ΔTm is -1.29 °C on Peregrin (Homo sapiens) and 2.24 °C in assay [1].
For `COc1nc(N)nc(Nc2cc(S(N)(=O)=O)ccc2N[C@@H](c2cccc3c2OC(F)(F)O3)c2ncccc2Cl)n1` the same measures were -3.63 °C and 1.9 °C.
For `O=C(NNc1ccccn1)c1ccccn1` the same measures were 0.74 °C and 0.02 °C.
In the same order, the values of `CC(C)C(=O)SCCCCCCC(=O)Nc1nc(-c2ccccc2)cs1` are -1.14 °C and 1.03 °C.
Turning to `Cn1nc(C(C)(C)C)cc1C(=O)NC(Cc1cccc(Cl)c1)C(=O)NCC#N` (centres undefined), the ΔTm turned out to be 2.3 °C on Peregrin (Homo sapiens) and 0.05 °C in assay [1].
For the compound `O=C(CNC(=O)[C@H](COP(=O)(O)O)NC(=O)CCc1c[nH]c2ccccc12)NCCCCc1ccccc1`, the thermal shift (ΔTm) turned out to be 2.14 °C at Peregrin (Homo sapiens) and 0.74 °C in assay [1].
Consider `OC[C@H]1O[C@@H](c2ccc(F)c(Cc3cc4ccccc4s3)c2)[C@H](O)[C@@H](O)[C@@H]1O`, for which the results for the ΔTm (on Peregrin (Homo sapiens); in assay [1]) were 1.12 °C and -0.55 °C, respectively.
For `COc1ccc(-c2c(-c3ccc(C#N)c(F)c3)nc(N3CCC(N)CC3)n(C)c2=O)cc1F` the same measures were 1.09 °C and 0.16 °C.
In the same order, the values of `CC(C)N(C(=O)c1cc(F)ccc1Oc1cncnc1N1CC2(CCN(C[C@H]3CC[C@H](NS(C)(=O)=O)CC3)CC2)C1)C(C)C` are 0.63 °C and -0.47 °C.
Consider `COc1ncc(C)cc1CC[C@@](O)(CC(=O)O)C(=O)O`, for which the ΔTm at Peregrin (Homo sapiens) turned out to be 1.67 °C; in assay [1] it was 0.32 °C.
For `CC(C)(Sc1ccncc1-c1ccc(C#N)c2ccccc12)C(=O)O` the same measures were 0.05 °C and 0.42 °C.
For `CN1CC(=O)N2[C@H](c3ccc4c(c3)OCO4)c3[nH]c4ccccc4c3C[C@@H]2C1=O` the same measures were 0.06 °C and -0.7 °C.
For `Cc1ccc(F)c2cc(C(=O)N[C@@H]3CCC[C@H](N4CC[C@H](N(C)S(C)(=O)=O)C4)C3)[nH]c12` the same measures were -0.28 °C and -0.4 °C.
On to `O=C1c2ccccc2C(=O)c2oc(-c3ccc(F)cc3)nc21`, for which the ΔTm at Peregrin (Homo sapiens) was -0.98 °C; in assay [1], 0.19 °C.
For `COc1ccc(C(CN(C)C)C2(O)CCCCC2)cc1` (centres undefined) the same measures were -0.6 °C and 0.29 °C.
For `N[C@@H](CC(=O)Nc1ccc(Oc2cc(F)c(F)cc2Br)cc1)C(=O)O`, the ΔTm on Peregrin (Homo sapiens) was 0.59 °C; in assay [1] it was -0.01 °C.
For `COc1cc(C)[nH]c(=O)c1CNC(=O)c1c(C)n([C@H](C)C2CCOCC2)c2ccccc12` the same measures were -1.84 °C and 0.42 °C.
For `CC(C)N(CCCNC(=O)Nc1ccc(C(C)(C)C)cc1)C[C@H]1O[C@@H](n2ccc3c(N)ncnc32)[C@H](O)[C@@H]1O` the same measures were -2.69 °C and 0.6 °C.
For `CC(C)[C@H](NC(=O)[C@H](CCC(=O)O)NC(=O)[C@H](C)NC(=O)OC(C)(C)C)C(=O)N[C@H](C=O)CC(=O)O` (Boc-AEVD-aldehyde) the same measures were -1.27 °C and 0.45 °C.
For the compound `CN1C(=O)c2c(nn(Cc3ccc(-c4cccc(F)n4)cc3)c2Nc2ccccc2)N2C1=N[C@@H]1CCC[C@@H]12`, the ΔTm was -0.45 °C on Peregrin (Homo sapiens) and -0.21 °C in assay [1].
For `CS(=O)(=O)c1ccc(Oc2cc(F)cc(C#N)c2)c2c1[C@H](O)C(F)(F)C2` the same measures were 1.71 °C and -0.21 °C.
Consider `C/C=C1\NC(=O)[C@H]2CSSCC/C=C/[C@H](CC(=O)N[C@H](C(C)C)C(=O)N2)OC(=O)[C@H](C(C)C)NC1=O`, for which the figures for the ΔTm (at Peregrin (Homo sapiens); in assay [1]) were 0 °C and 0.1 °C, respectively.
For `NC(=O)c1cc(F)cc2c1C(=O)N(C1CCN(C3CCC(F)(F)CC3)CC1)C2`, the figures for the ΔTm (at Peregrin (Homo sapiens); in assay [1]) were -0.15 °C and -0.03 °C, respectively.
In the same order, the values of `CC(C)N(C[C@H]1O[C@@H](n2cnc3c(N)ncnc32)[C@H](O)[C@@H]1O)[C@H]1C[C@@H](CCc2nc3cc(C(C)(C)C)ccc3[nH]2)C1` are -1.35 °C and 0.82 °C.
In the same order, the values of `C[C@@H]1CCC[C@H](C)N1NC(=O)c1ccc(Cl)c(S(N)(=O)=O)c1` are 0.5 °C and -0.13 °C.
For `O=c1cc(-c2ccc(O)cc2)oc2c(CN3CCN(Cc4cccs4)CC3)c(O)cc(O)c12` the same measures were 3.1 °C and 1.05 °C.
Turning to `CCCCCCNC(=O)n1cc(Cl)c(=O)n(C(=O)OCC(C)C)c1=O`, the ΔTm at Peregrin (Homo sapiens) was determined as 0.68 °C; in assay [1] it was 0.1 °C.
Regarding `CC(C)c1c(-c2cnn(C(C)(C)C)c2)[nH]c2c(C#N)cnn2c1=O`, the ΔTm on Peregrin (Homo sapiens) amounted to 0.8 °C; in assay [1], 0.36 °C.
For `CC(C)C(=O)c1c(C(C)C)nn2ccccc12` the same measures were 0.32 °C and -0.49 °C.
With `O=C(NCCCc1ccccc1)c1cccc(-c2cc(O)c3ncccc3c2)c1`, the values for the shift in melting temperature (ΔTm) (on Peregrin (Homo sapiens); in assay [1]) were 3.29 °C and 0.19 °C, respectively.
For `CS(=O)(=O)N1CCN(C(=O)c2cnc3ccc(F)cc3c2N2CCC(C#N)(c3ccccc3)CC2)CC1` the same measures were 1.45 °C and -4.51 °C.
In the case of `CCCCOc1c(OC)cc(C(=O)NCC2(N(C)C)CCOCC2)cc1OC`, the values for the shift in melting temperature (ΔTm) (at Peregrin (Homo sapiens); in assay [1]) were -1.37 °C and -0.02 °C, respectively.
In the same order, the values of `Cc1nc(N)c2nnn(C[C@H]3CN(Cc4nccs4)CCO3)c2n1` are 0.82 °C and -0.39 °C.
In the same order, the values of `COc1ccc(-c2ccc(-c3cn(C(=O)N4CCCCC4c4ccccc4)nn3)cc2)cc1` (centres undefined) are -1.62 °C and 0.03 °C.
In the same order, the values of `CC1(C)c2cccc(C(=O)NO)c2CN1c1cnc(C(F)(F)F)cn1` are 0.66 °C and 0.83 °C.
As for `COc1cc2c(NC3CCN(C)CC3)cc(-c3ccc(C)o3)nc2cc1OCCCN1CCCC1`, the values for the shift in melting temperature (ΔTm) (at Peregrin (Homo sapiens); in assay [1]) were -0.96 °C and 0.85 °C, respectively.
For `CC(=Cc1cc(C)ccc1C=C(C)C(=O)NC(=N)N)C(=O)N=C(N)N` the same measures were -1.11 °C and -0.04 °C.
